Measured values from patent US20190375778A1, “ADENOSINE DERIVATIVES FOR USE IN THE TREATMENT OF CANCER” (NuCana plc, priority 2016, published 2019).

Tests used:
[1] = test system: Murine leukemia L1210; assay: Cell proliferation (Coulter count) assay, L1210; type: cell-based; details: Mus musculus, 48 h, read-out: absolute IC50, L1210
Description: (§1) Lovo: cell line derived from a metastatic site in a patient with colon cancer MCF7: human oestrogen sensitive mammary epithelial cell line PC3: human prostate cancer cell line A549: cancerous lung tissue derived cells L1210: lymphoblast cell line derived from a mouse with lymphocytic leukaemia FM3A: mammary carcinoma murine cells CEM: human T-lymphoblasts, derived from the blood of a patient with acute lymphoblastic leukaemia HeLa: epithelial cells from a patient with cervical adenocarcinoma
(§2) Murine leukemia L1210, human T-lymphocyte CEM, and human cervix carcinoma HeLa cells were obtained from the American Type Culture Collection (ATCC) (Rockville, Md.). All cells were maintained in Dulbecco's modified Eagle's medium (DMEM) (Invitrogen, Carlsbad, Calif.) with 10% fetal bovine serum (FBS) (Biochrom AG, Berlin, Germany), 10 mM Hepes, and 1 mM sodiumpyruvate (Invitrogen). Cells were grown at 37° C. in a humidified incubator with a gas phase of 5% CO2. Monolayer cells (HeLa and […]) were seeded in 96-well microtiter plates (Nunc, Roskilde, Denmark) at 10 000 cells/well. After 24 h, an equal volume of fresh medium containing the test compounds was added. On day 5, cells were trypsinized and counted in a Coulter counter (Analis, Suarlee, Belgium). Suspension cells (L1210, CEM) were seeded in 96-well microtiter plates (Nunc) at 60 000 cells/well in the presence of a given amount of the test compounds. The cells were allowed to proliferate for 48 h (L1210) or 72 h (CEM) and were then counted in a Coulter counter. The 50% inhibitory concentration (IC50) was defined as the compound concentration required to reduce cell proliferation by 50%. The cytostatic activity of the compounds was determined after 3 days, as outlined above.

[2] = test system: human cervix carcinoma HeLa cells; assay: Cell proliferation (Coulter count) assay, HeLa; type: cell-based; details: 120 h, cell count on day 5, read-out: absolute IC50, HeLa
Description: as §1, §2

[3] = test system: human T-lymphocyte CEM; assay: Cell proliferation (Coulter count) assay, CEM; type: cell-based; details: 72 h, read-out: absolute IC50, CEM
Description: as §1, §2

[4] = test system: KG1a leukaemic stem cell compartment (Lin−/CD34+/CD38−/CD123+); assay: Leukaemic stem cell compartment in KG1a; type: cell-based; details: for Change relative to control (%): % LSC compartment versus the series' control; for KG-1a (CD34+/CD38−/CD123+) % compartment: LSC as percentage of viable cells left, 72 hrs
Method: A further comparative analysis of the toxicity of compounds in the KG1a cell line over an extended dose range was carried out, and the relative effect assessed of the compounds on the leukaemic stem cell compartment within the KG1a cell line, across the entire dose range. Thus, experimental tests were performed on certain compounds of the present invention to assess their ability to target cancer stem cells in a leukaemic cell line. The acute myeloid leukaemia (AML) cell line, KG1a, was employed to assess the relative effect of compounds on the stem cell compartment. The KG1a cell line was selected because it manifests a minor stem cell-like compartment with a distinct immunophenotype (Lin^−/CD34^+/CD38^−/CD123^+).
Cells of the KG1a cell line were maintained in RPMI medium (Invitrogen, Paisley, UK) supplemented with 100 units/ml penicillin, 100 μg/ml streptomycin and 20% foetal calf serum. Cells were subsequently aliquoted (10^5 cells/100 μl) into 96-well plates and were incubated at 37° C. in a humidified 5% carbon dioxide atmosphere for 72 hrs in the presence of nucleoside analogues and their respective nucleotide analogues (known as ProTides) at concentrations that were experimentally determined for each series of compounds. In addition, control cultures were carried out to which no drug was added. Cells were subsequently harvested by centrifugation and were analyzed by flow cytometry using the Annexin V assay.
KG1a cells were cultured for 72 hrs in the presence of a wide range of concentrations of each compound assayed. Cells were then harvested and labelled with a cocktail of anti-lineage antibodies (PE-cy7), anti-CD34 (FITC), anti-CD38 (PE) and anti-CD123 (PERCP cy5). The sub-population expressing a leukaemic stem cell (LSC) phenotype were subsequently identified and were expressed as a percentage of all viable cells left in the culture. The percentages of stem cells remaining were then plotted on a dose-response graph and the effects of the compounds were compared with 8-chloroadenosine.
The data obtained in these experiments were evaluated using one way ANOVA. All data was confirmed as Gaussian or a Gaussian approximation using the omnibus K2 test. LD50 values were calculated from the non-linear regression and line of best-fit analysis of the sigmoidal dose-response curves. All statistical analyses were performed using Graphpad Prism 6.0 software (Graphpad Software Inc., San Diego, Calif.).

[5] = test system: CCRFCEM; assay: CellTiterGlo viability assay, CCRFCEM; type: cell-based; details: Homo sapiens, CCRF-CEM, 72 h, read-out: IC50 CCRFCEM
Method: (§3) In vitro viability assay were performed to assess the effects of compounds on cell viability in selected cell lines over ˜72 hrs using the CellTiterGlo (CTG, Promega-G7573) assay. The tests were performed in duplicates with treatment of compounds at 9 points, 3.16 folds titration in 96 well plates over ˜72 hrs. The compound starting concentrations were 198 μM. Cell viability assay using CellTiterGlo in 96-well plate were performed. Compound treatment 72 hrs, standard growth conditions, duplicates. Compounds were dissolved to 40 mM with thawed […]. Compounds were serially diluted at 3.16 fold in thawed DMSO, and warmed to 37° C. before being dissolved in media (2 μl+200 μl). After compounds were dissolved in media, media containing compounds were warmed to 37° C. in incubator and then compounds in media were added to cell plates (50 μl+50 μl) in duplicates. The compounds' final concentrations were from […] to 19.9 nM. All compound solubilities were checked and recorded again, then the plates were transferred to CO2 tissue culture incubator immediately and incubated for 3 days. DMSO final concentration is 0.5%.

[6] = test system: MV4-11; assay: CellTiterGlo viability assay, MV4-11; type: cell-based; details: Homo sapiens, MV4-11, 72 h, read-out: IC50 MV4-11
Method: as §3

[7] = test system: NCI-H929; assay: CellTiterGlo viability assay, NCI-H929; type: cell-based; details: Homo sapiens, NCI-H929, 72 h, read-out: IC50 NCI-H929
Method: as §3

[8] = test system: K562; assay: CellTiterGlo viability assay, K562; type: cell-based; details: Homo sapiens, K562, 72 h, read-out: IC50 K562
Method: as §3

[9] = test system: RPMI-8226; assay: CellTiterGlo viability assay, RPMI-8226; type: cell-based, Human; details: Homo sapiens, RPMI-8226, 72 h, read-out: IC50 RPMI-8226
Method: as §3

[10] = test system: RL; assay: CellTiterGlo viability assay, RL; type: cell-based; details: Homo sapiens, RL, 72 h, read-out: IC50 RL
Method: as §3

[11] = test system: HL-60; assay: CellTiterGlo viability assay, HL-60; type: cell-based; details: Homo sapiens, HL-60, 72 h, read-out: IC50 HL-60
Method: as §3

[12] = test system: HEL92.1.7; assay: CellTiterGlo viability assay, HEL92.1.7; type: cell-based; details: Homo sapiens, HEL 92.1.7, 72 h, read-out: IC50 HEL92.1.7
Method: as §3

[13] = test system: KG-1; assay: CellTiterGlo viability assay, KG-1; type: cell-based; details: Homo sapiens, KG-1, 72 h, read-out: IC50 KG-1
Method: as §3

Row | SMILES | IC50 [1] [µM] | IC50 [2] [µM] | IC50 [3] [µM] | also measured
1 | C[C@H](NP(=O)(N[C@@H](C)C(=O)OCc1ccccc1)OC[C@H]1O[C@@H](n2c(Cl)nc3c(N)ncnc32)C(O)C1O)C(=O)OCc1ccccc1 (stereo partly drawn) [AB, 8-Chloroadenosine 5′-O-bis(benzyloxy-L-alanin-N-yl) phosphate] | 5 to 15 | 0.1 to 5 | 0.1 to 5 | 
2 | Nc1nc(Cl)nc2c1ncn2[C@H]1C[C@H](O)[C@@H](CO)O1 [Cladribine] |  |  |  | Change relative to control (%) [4]: +2.0%; KG-1a (CD34+/CD38−/CD123+) % compartment [4]: 6.0%
3 | Nc1nc(Cl)nc2c1ncn2[C@@H]1O[C@H](CO)[C@@H](O)[C@@H]1F [Clofarabine] |  |  |  | Change relative to control (%) [4]: −0.2%; KG-1a (CD34+/CD38−/CD123+) % compartment [4]: 3.3%
4 | Nc1ncnc2c1nc(Cl)n2[C@@H]1O[C@H](COP(=O)(NCC(=O)OCc2ccccc2)Oc2cccc3ccccc23)C(O)C1O (stereo partly shown) [Compound L, 5′-([(benzylo-yl-glycin-N-yl)-naphth-1-yl]-phosphatyl) 8-chloroadenosine] | 5 to 15 | 0.1 to 5 | 0.1 to 5 | IC50 [5]: 5 to 15 µM; IC50 [6]: 0.1 to 5 µM; IC50 [7]: 15 to 100 µM; IC50 [8]: 5 to 15 µM; IC50 [9]: 0.1 to 5 µM; IC50 [10]: 5 to 15 µM; IC50 [11]: 5 to 15 µM; IC50 [12]: 0.1 to 5 µM; IC50 [13]: 5 to 15 µM
5 | CCOC(=O)[C@H](C)NP(=O)(OC[C@H]1O[C@@H](n2c(Cl)nc3c(N)ncnc32)C(O)C1O)Oc1cccc2ccccc12 (stereo partly drawn) [F, 5′-([(Ethyloxy-L-alanin-N-yl)-naphth-1-yl]-phosphatyl) 8-chloroadenosine] | 15 to 100 | 0.1 to 5 | 5 to 15 | 
6 | C[C@H](NP(=O)(OC[C@H]1O[C@@H](n2c(Cl)nc3c(N)ncnc32)C(O)C1O)Oc1cccc2ccccc12)C(=O)OC1CCCCC1 (stereo partly drawn) [G, 5′-([(Cyclohexyloxy-L-alanin-N-yl)-naphth-1-yl]-phosphatyl) 8-chloroadenosine] | 15 to 100 | 0.1 to 5 | 5 to 15 | 
7 | CCCCCOC(=O)[C@H](CC(C)C)NP(=O)(OC[C@H]1O[C@@H](n2c(Cl)nc3c(N)ncnc32)C(O)C1O)Oc1cccc2ccccc12 (stereo partly drawn) [I, 5′-([(Pent-1-yloxy-L-leucin-N-yl)-naphth-1-yl]-phosphatyl) 8-chloroadenosine] | 5 to 15 | 0.1 to 5 | 5 to 15 | 
8 | CC(C)C[C@H](NP(=O)(OC[C@H]1O[C@@H](n2c(Cl)nc3c(N)ncnc32)C(O)C1O)Oc1cccc2ccccc12)C(=O)OC1CCCCC1 (stereo partly drawn) [J, 5′-([(Cyclohexyloxy-L-leucin-N-yl)-naphth-1-yl]-phosphatyl) 8-chloroadenosine] | 5 to 15 | 5 to 15 | 5 to 15 | 
9 | CCOC(=O)[C@H](CC(C)C)NP(=O)(OC[C@H]1O[C@@H](n2c(Cl)nc3c(N)ncnc32)C(O)C1O)Oc1cccc2ccccc12 (stereo partly drawn) [K, 5′-([(ethyloxy-L-leucin-N-yl)-naphth-1-yl]-phosphatyl) 8-chloroadenosine] | 15 to 100 | 0.1 to 5 | 5 to 15 | 
10 | Nc1ncnc2c1nc(Cl)n2[C@@H]1O[C@H](COP(=O)(NCC(=O)OC2CCCCC2)Oc2cccc3ccccc23)C(O)C1O (stereo partly shown) [M, 5′-([(Cyclohexyloxy-glycin-N-yl)-naphth-1-yl]-phosphatyl) 8-chloroadenosine] | 15 to 100 | 15 to 100 | 15 to 100 | 
11 | CCOC(=O)CNP(=O)(OC[C@H]1O[C@@H](n2c(Cl)nc3c(N)ncnc32)C(O)C1O)Oc1cccc2ccccc12 (stereo partly shown) [N, 5′-([(ethyloxy-glycin-N-yl)-naphth-1-yl]-phosphatyl) 8-chloroadenosine] | 15 to 100 | 0.1 to 5 | 15 to 100 | 
12 | CCCCCOC(=O)CNP(=O)(OC[C@H]1O[C@@H](n2c(Cl)nc3c(N)ncnc32)C(O)C1O)Oc1cccc2ccccc12 (stereo partly shown) [O, 5′-([(Pent-1-yloxy-glycin-N-yl)-naphth-1-yl]-phosphatyl) 8-chloroadenosine] | 0.1 to 5 | 0.1 to 5 | 0.1 to 5 | IC50 [5]: 15 to 100 µM; IC50 [6]: 0.1 to 5 µM; IC50 [7]: 15 to 100 µM; IC50 [8]: 5 to 15 µM; IC50 [9]: 5 to 15 µM; IC50 [10]: 15 to 100 µM; IC50 [11]: 15 to 100 µM; IC50 [12]: 15 to 100 µM; IC50 [13]: 15 to 100 µM
13 | Nc1ncnc2c1nc(Cl)n2[C@@H]1O[C@H](COP(=O)(N[C@@H](Cc2ccccc2)C(=O)OCc2ccccc2)Oc2cccc3ccccc23)C(O)C1O (stereo partly drawn) [P, 5′-([(Benzyloxy-L-phenylalanin-N-yl)-naphth-1-yl]-phosphatyl) 8-chloroadenosine] | 5 to 15 | 0.1 to 5 | 0.1 to 5 | IC50 [5]: 5 to 15 µM; IC50 [6]: 0.1 to 5 µM; IC50 [7]: 0.1 to 5 µM; IC50 [8]: 0.1 to 5 µM; IC50 [9]: 0.1 to 5 µM; IC50 [10]: 5 to 15 µM; IC50 [11]: 0.1 to 5 µM; IC50 [12]: 0.1 to 5 µM; IC50 [13]: 5 to 15 µM
14 | Nc1ncnc2c1nc(Cl)n2[C@@H]1O[C@H](COP(=O)(N[C@@H](Cc2ccccc2)C(=O)OC2CCCCC2)Oc2cccc3ccccc23)C(O)C1O (stereo partly drawn) [R, 5′-([(Cyclohexyloxy-L-phenylalanin-N-yl)-naphth-1-yl]-phosphatyl) 8-chloroadenosine] | 5 to 15 | 0.1 to 5 | 5 to 15 | 
15 | CCOC(=O)[C@H](Cc1ccccc1)NP(=O)(OC[C@H]1O[C@@H](n2c(Cl)nc3c(N)ncnc32)C(O)C1O)Oc1cccc2ccccc12 (stereo partly drawn) [S, 5′-([(Ethyloxy-L-phenylalanin-N-yl)-naphth-1-yl]-phosphatyl) 8-chloroadenosine] | 15 to 100 | 0.1 to 5 | 5 to 15 | 
